{"source": "patent US12391664B2", "about": "“GluN2C/D subunit selective antagonists of the N-methyl-D-aspartate receptor” (Emory University, priority 2018, dated 2025)", "assay_type_in_all_cases": "cell-based", "key": {"[1]": {"molecular_target": "T1, recombinant rat GluN1/GluN2A (Rattus norvegicus, UniProt P35439+Q00959)", "T1 construct": "expressed in transfected cells; host or cells: Xenopus laevis oocytes injected with cRNA (GluN1:GluN2 ratio 1:2)", "T1 sequence (Q00959 23-1464, other chains not shown)": "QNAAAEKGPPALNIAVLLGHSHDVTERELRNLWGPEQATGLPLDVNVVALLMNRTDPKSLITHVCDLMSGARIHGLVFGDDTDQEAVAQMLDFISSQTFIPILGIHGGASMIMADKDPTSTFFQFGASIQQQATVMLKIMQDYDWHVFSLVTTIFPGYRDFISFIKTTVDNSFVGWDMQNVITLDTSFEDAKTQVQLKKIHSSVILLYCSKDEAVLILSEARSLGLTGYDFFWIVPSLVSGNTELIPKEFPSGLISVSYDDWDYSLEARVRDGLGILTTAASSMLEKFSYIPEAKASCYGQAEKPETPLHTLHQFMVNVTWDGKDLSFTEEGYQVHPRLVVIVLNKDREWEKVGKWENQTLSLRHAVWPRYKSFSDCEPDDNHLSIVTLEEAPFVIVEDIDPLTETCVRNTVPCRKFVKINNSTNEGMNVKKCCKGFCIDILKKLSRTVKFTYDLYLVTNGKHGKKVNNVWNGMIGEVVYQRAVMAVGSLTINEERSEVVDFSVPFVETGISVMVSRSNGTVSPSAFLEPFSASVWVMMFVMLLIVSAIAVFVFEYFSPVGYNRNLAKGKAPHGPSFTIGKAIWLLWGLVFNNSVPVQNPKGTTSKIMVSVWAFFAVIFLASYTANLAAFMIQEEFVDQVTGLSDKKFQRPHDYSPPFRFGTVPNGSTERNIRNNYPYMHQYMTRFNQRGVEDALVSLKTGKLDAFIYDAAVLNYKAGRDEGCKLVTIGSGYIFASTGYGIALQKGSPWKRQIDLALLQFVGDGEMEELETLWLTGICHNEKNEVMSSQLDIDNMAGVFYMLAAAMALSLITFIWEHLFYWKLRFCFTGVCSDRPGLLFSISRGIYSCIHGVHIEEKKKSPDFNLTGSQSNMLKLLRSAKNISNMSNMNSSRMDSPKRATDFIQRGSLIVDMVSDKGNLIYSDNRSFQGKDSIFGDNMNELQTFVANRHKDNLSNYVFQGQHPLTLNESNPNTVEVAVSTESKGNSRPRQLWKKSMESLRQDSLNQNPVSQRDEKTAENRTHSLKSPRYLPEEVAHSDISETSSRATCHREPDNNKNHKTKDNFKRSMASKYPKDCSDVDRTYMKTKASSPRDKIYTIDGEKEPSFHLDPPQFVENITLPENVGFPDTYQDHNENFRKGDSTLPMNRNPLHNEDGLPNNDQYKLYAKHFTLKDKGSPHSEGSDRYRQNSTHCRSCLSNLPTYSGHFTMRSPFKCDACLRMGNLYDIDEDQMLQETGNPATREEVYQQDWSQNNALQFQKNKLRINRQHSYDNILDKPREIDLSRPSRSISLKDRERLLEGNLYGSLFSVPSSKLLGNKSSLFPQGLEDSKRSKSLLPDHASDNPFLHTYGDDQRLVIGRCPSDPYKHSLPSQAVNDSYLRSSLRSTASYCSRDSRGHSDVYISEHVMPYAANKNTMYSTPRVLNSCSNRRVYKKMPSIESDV", "test": "Two-electrode voltage-clamp recordings in Xenopus laevis oocytes, GluN2A", "conditions": "oocytes, 100 μM glutamate and 30 μM glycine", "protocol": "(§1) All target compounds were evaluated for activity by the Traynelis laboratory at Emory University using two-electrode voltage-clamp recordings performed in Xenopus laevis oocytes expressing recombinant GluN2A-D subunits (Table 1). […] Two ester compounds 997-65 and 997-66 also performed no inhibition at GluN2A to GluN2D receptors. […] Consequently, for the compounds that Acker et al. already published, it was necessary to increase the concentration to 100 μM when collecting data for a concentration effect curve. […] Therefore, under this condition, we can only conclude that compound 997-67 remained potent at GluN2C/D-containing receptors, but its selectivity over GluN2A- and GluN2B-containing receptors could not be compared to 997-57. […] Finally, replacing the carboxylic acid to the bio-isostere amide yielded compounds 997-96 and 997-115, which dropped the potency 2- to 4-fold in comparison to their corresponding acids 997-74 and 997-114.\n(§2) Two-electrode voltage-clamp recordings were performed in Xenopus laevis oocytes that were injected with mRNA to express recombinant rat GluN1/GluN2A, GluN1/GluN2B, GluN1/GluN2C, and GluN1/GluN2D. The recordings using unfertilized oocytes from Xenopus laevis were permitted by Emory University Institutional Animal Care and Use Committee (IACUC). An automatic injector (Nanoject II, Drummond Scientific) was used for cRNA injection using the pipettes filled with mineral oil. The cRNA that transcribed in vitro via the mMessage Machine kit (Ambion) was diluted with nuclease-free water, and then injected at GluN1/GluN2 with a ratio of 1:2. The oocytes were stored in Barth's solution that contained 88 mM NaCl, 5.0 mM Tris-HCl, 2.4 mM NaHCO3, 1.0 mM KCl, 0.84 mM MgSO4, 0.41 mM CaCl2, 0.33 mM Ca(NO3)2, 0.1 mg/ml gentamycin sulfate, 1.0 U/ml penicillin, and 1 μg/ml streptomycin at a pH of 7.4 and temperatures of 15-17° C. for two to five days before the two-electrode voltage-clamp recordings. When recording, the oocytes were placed in a perfusion chamber and continually washed with the recording solution comprised of 90 mM NaCl, 1.0 mM KCl, 0.50 mM BaCl2, 0.005 mM EDTA, and 10 mM HEPES at a pH of 7.4 and a temperature of 23° C. Glass electrodes with a tip resistance of 0.5 to 2.5 MΩ were obtained from thin-walled glass capillary tubes. Voltage electrodes and current electrodes were filled with 0.3 M and 3.0 M KCl, respectively. The recordings were executed with the oocytes membrane potential holding at −40 m V by an OC-725 amplifier (Warner Instrument Co). All compounds were dissolved in dimethyl sulfoxide (DMSO) as 20 mM stock solutions and future diluted to reach the desired concentration (0.05-0.5% (vol/vol) DMSO) in recording solution comprised of 30 μM glycine and 100 μM glutamate. Each compound was recorded 3-7 times in the least 4 oocytes from at least 2 different Xenopus laevis.\n(§3) To evaluate the inhibition of compounds, the concentration-response curve was fitted with the average two-electrode voltage-clamp recording results with the equation\n(§4) [formula] • where IC50 is the concentration of compounds that inhibit half maximal of the current response and N is the Hill slope."}, "[2]": {"molecular_target": "T2, recombinant rat GluN1/GluN2B (Rattus norvegicus, UniProt P35439+Q00960)", "T2 construct": "expressed in transfected cells; host or cells: Xenopus laevis oocytes injected with cRNA (GluN1:GluN2 ratio 1:2)", "test": "Two-electrode voltage-clamp recordings in Xenopus laevis oocytes, GluN2B", "conditions": "oocytes, 100 μM glutamate and 30 μM glycine", "protocol": "as §1, §2, §3, §4"}, "[3]": {"molecular_target": "T3, recombinant rat GluN1/GluN2C (Rattus norvegicus, UniProt P35439+Q00961)", "T3 construct": "expressed in transfected cells; host or cells: Xenopus laevis oocytes injected with cRNA (GluN1:GluN2 ratio 1:2)", "test": "Two-electrode voltage-clamp recordings in Xenopus laevis oocytes, GluN2C", "protocol": "as §1, §2, §3, §4"}, "[4]": {"molecular_target": "T4, recombinant rat GluN1/GluN2D (Rattus norvegicus, UniProt P35439+Q62645)", "T4 construct": "expressed in transfected cells; host or cells: Xenopus laevis oocytes injected with cRNA (GluN1:GluN2 ratio 1:2)", "T4 sequence (Q62645 28-1323, other chains not shown)": "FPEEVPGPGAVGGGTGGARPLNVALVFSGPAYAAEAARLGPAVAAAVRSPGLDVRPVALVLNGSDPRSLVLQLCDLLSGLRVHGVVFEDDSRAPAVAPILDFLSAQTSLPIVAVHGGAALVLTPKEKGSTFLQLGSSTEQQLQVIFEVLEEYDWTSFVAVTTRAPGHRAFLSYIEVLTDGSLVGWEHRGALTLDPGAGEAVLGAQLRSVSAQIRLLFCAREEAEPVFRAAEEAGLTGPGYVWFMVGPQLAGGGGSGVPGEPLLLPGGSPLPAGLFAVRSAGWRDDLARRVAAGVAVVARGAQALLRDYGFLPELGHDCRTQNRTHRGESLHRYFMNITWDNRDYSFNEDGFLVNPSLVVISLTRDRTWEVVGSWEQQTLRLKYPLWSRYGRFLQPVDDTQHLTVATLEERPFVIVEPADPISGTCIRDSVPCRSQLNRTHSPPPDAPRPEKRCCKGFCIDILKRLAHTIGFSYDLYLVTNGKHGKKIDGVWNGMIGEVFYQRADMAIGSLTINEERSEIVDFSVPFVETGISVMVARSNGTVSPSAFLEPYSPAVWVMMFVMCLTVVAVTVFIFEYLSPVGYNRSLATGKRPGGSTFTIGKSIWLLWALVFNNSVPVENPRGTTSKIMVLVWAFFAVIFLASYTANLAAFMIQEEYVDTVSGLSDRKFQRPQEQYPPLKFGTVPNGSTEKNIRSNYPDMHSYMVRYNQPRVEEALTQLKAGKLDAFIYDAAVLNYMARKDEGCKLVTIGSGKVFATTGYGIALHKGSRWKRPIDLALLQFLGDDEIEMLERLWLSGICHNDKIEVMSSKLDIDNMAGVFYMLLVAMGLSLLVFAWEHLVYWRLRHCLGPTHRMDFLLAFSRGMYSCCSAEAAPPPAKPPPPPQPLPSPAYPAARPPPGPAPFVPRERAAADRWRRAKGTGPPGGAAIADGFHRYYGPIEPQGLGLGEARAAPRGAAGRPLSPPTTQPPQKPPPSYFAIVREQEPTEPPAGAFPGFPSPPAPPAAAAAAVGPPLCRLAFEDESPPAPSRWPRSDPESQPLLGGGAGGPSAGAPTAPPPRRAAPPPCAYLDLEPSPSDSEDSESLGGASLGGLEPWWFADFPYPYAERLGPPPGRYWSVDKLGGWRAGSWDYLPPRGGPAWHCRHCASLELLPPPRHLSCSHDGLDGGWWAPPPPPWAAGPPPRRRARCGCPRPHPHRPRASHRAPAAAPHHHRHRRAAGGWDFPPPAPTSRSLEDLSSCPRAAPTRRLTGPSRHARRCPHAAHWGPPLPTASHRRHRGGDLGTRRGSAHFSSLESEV", "test": "Two-electrode voltage-clamp recordings in Xenopus laevis oocytes, GluN2D", "protocol": "as §1, §2, §3, §4"}, "[5]": {"molecular_target": "T5, recombinant rat GluN1/GluN2A (Rattus norvegicus, UniProt Q00959)", "T5 construct": "expressed in transfected cells; host or cells: Xenopus laevis oocytes injected with cRNA (GluN1:GluN2 ratio 1:2)", "T5 sequence (Q00959 23-1464, other chains not shown)": "as the sequence (Q00959 23-1464, other chains not shown) above", "test": "Two-electrode voltage-clamp recordings in Xenopus laevis oocytes, GluN2A", "conditions": "for GluN2A IC50: oocytes, 100 μM glutamate and 30 μM glycine", "protocol": "as §1, §2, §3, §4"}, "[6]": {"molecular_target": "T6, recombinant rat GluN1/GluN2B (Rattus norvegicus, UniProt Q00960)", "T6 construct": "expressed in transfected cells; host or cells: Xenopus laevis oocytes injected with cRNA (GluN1:GluN2 ratio 1:2)", "test": "Two-electrode voltage-clamp recordings in Xenopus laevis oocytes, GluN2B", "protocol": "as §1, §2, §3, §4"}, "[7]": {"molecular_target": "T7, recombinant rat GluN1/GluN2C (Rattus norvegicus, UniProt Q00961)", "T7 construct": "expressed in transfected cells; host or cells: Xenopus laevis oocytes injected with cRNA (GluN1:GluN2 ratio 1:2)", "test": "Two-electrode voltage-clamp recordings in Xenopus laevis oocytes, GluN2C", "protocol": "as §1, §2, §3, §4"}, "[8]": {"molecular_target": "T8, recombinant rat GluN1/GluN2D (Rattus norvegicus, UniProt Q62645)", "T8 construct": "expressed in transfected cells; host or cells: Xenopus laevis oocytes injected with cRNA (GluN1:GluN2 ratio 1:2)", "T8 sequence (Q62645 28-1323, other chains not shown)": "as the sequence (Q62645 28-1323, other chains not shown) above", "test": "Two-electrode voltage-clamp recordings in Xenopus laevis oocytes, GluN2D", "conditions": "for 2A IC50 / 2D IC50 / 2B IC50 / 2D IC50: ratio of IC50 values", "protocol": "as §1, §2, §3, §4"}, "[9]": {"conditions": "oocytes, 100 μM glutamate and 30 μM glycine, read-out: GluN2C IC50"}, "[10]": {"conditions": "read-out: IC50 at GluN2D-containing receptors"}, "[11]": {"conditions": "oocytes, 100 μM glutamate and 30 μM glycine"}, "[12]": {"conditions": "oocytes, 100 μM glutamate and 30 μM glycine, read-out: GluN2D IC50"}, "[13]": {"conditions": "3 μM compound with 100 μM glutamate and 30 μM glycine, control set as 1"}}, "note": "Where two headings read alike, the source gives them in different places."}
{"smiles": "O=C(O)CC(F)(F)C(=O)N1N=C(c2c(-c3ccc(F)cc3)c3cc(F)ccc3[nH]c2=O)CC1c1ccc(Cl)cc1", "note": "(stereo not drawn) [997-102, 4-(5-(4-chlorophenyl)-3-(6-fluoro-4-(4-fluorophenyl)-2-oxo-1,2-dihydroquinolin-3-yl)-4,5-dihydro-1H-pyrazol-1-yl)-3,3-difluoro-4-oxobutanoic acid]", "values": [{"measurement": "IC50", "setting": "[1]", "value": 5.9, "unit": "µM"}, {"measurement": "IC50", "setting": "[2]", "value": 7.3, "unit": "µM"}, {"measurement": "IC50", "setting": "[3]; [9]", "value": 1, "unit": "µM"}, {"measurement": "IC50", "setting": "[4]; [10]", "value": 0.4, "unit": "µM"}]}
{"smiles": "O=C(O)CCC(=O)N1N=C(c2c(-c3ccc(Cl)cc3)c3ccccc3[nH]c2=O)CC1c1ccc(Cl)nc1", "note": "(stereo not drawn) [997-92, 4-(3-(4-(4-chlorophenyl)-2-oxo-1,2-dihydroquinolin-3-yl)-5-(6-chloropyridin-3-yl)-4,5-dihydro-1H-pyrazol-1-yl)-4-oxobutanoic acid]", "values": [{"measurement": "GluN2A IC50", "setting": "[5]", "value": "NE (NE indicates less than 50% inhibition at 30 μM.)"}, {"measurement": "GluN2B IC50", "setting": "[6]; [11]", "value": "NE (NE indicates less than 50% inhibition at 30 μM.)"}, {"measurement": "IC50", "setting": "[3]; [9]", "value": 8, "unit": "µM"}, {"measurement": "GluN2C IC50", "setting": "[7]; [11]", "value": "weak activity"}, {"measurement": "IC50", "setting": "[4]; [12]", "value": 8, "unit": "µM"}, {"measurement": "GluN2D IC50", "setting": "[8]; [11]", "value": "weak activity"}]}
{"smiles": "O=C(O)CC(F)(F)C(=O)N1N=C(c2ccccc2-c2cc(Cl)cc(Cl)c2)CC1c1ccc(Cl)cc1", "note": "(stereo not drawn) [997-123, 4-(5-(4-chlorophenyl)-3-(3′,5′-dichloro-[1,1′-biphenyl]-2-yl)-4,5-dihydro-1H-pyrazol-1-yl)-3,3-difluoro-4-oxobutanoic acid]", "values": [{"measurement": "GluN2A IC50", "setting": "[5]", "value": "NE (NE indicates less than 50% inhibition at 30 μM.)"}, {"measurement": "IC50", "setting": "[2]", "value": 15.6, "unit": "µM"}, {"measurement": "IC50", "setting": "[3]; [9]", "value": 7.34, "unit": "µM"}, {"measurement": "IC50", "setting": "[4]; [12]", "value": 4.67, "unit": "µM"}]}
{"smiles": "O=C(CC(F)(F)C(=O)O)N1N=C(c2c(-c3cccc(F)c3)c3ccccc3[nH]c2=O)CC1c1ccc(Cl)cc1", "note": "(stereo not drawn) [997-69, 4-{5-(4-chlorophenyl)-3-[4-(3-fluorophenyl)-2-oxo-1,2-dihydroquinolin-3-yl]-4,5-dihydro-1H-pyrazol-1-yl}-2,2-difluoro-4-oxobutanoic acid]", "values": [{"measurement": "IC50", "setting": "[1]", "value": 28, "unit": "µM"}, {"measurement": "IC50", "setting": "[2]", "value": 48, "unit": "µM"}, {"measurement": "2A IC50 / 2D IC50", "setting": "[8]", "value": 56}, {"measurement": "2B IC50 / 2D IC50", "setting": "[8]", "value": 96}]}
{"smiles": "O=C(O)CC(F)(F)C(=O)N1N=C(c2c(-c3ccc(Cl)cc3)c3ccccc3[nH]c2=O)CC1c1ccc(Cl)cc1", "note": "(stereo not drawn) [997-74, 4-(5-(4-chlorophenyl)-3-(4-(4-chlorophenyl)-2-oxo-1,2-dihydroquinolin-3-yl)-4,5-dihydro-1H-pyrazol-1-yl)-3,3-difluoro-4-oxobutanoic acid]", "values": [{"measurement": "IC50", "setting": "[1]", "value": 11, "unit": "µM"}, {"measurement": "IC50", "setting": "[2]", "value": 6.9, "unit": "µM"}, {"measurement": "selectivity at GluN2D- over GluN2A-containing receptor", "setting": "[8]", "value": "approximately 220 fold"}, {"measurement": "2A IC50 / 2D IC50", "setting": "[8]", "value": 220}, {"measurement": "2B IC50 / 2D IC50", "setting": "[8]", "value": 138}]}
{"smiles": "O=C(O)CC(F)(F)C(=O)N1N=C(c2c(-c3ccc(Cl)cc3)c3ccccc3[nH]c2=O)C[C@H]1c1ccc(Cl)cc1", "note": "[(−)-997-74]", "values": [{"measurement": "I3 μM/Icontrol (mean ± SEM, %) GluN2A", "setting": "[5]; [13]", "value": "67 ± 3.9", "unit": "%"}, {"measurement": "I3 μM/Icontrol (mean ± SEM, %) GluN2B", "setting": "[6]; [13]", "value": "73 ± 4.8", "unit": "%"}, {"measurement": "IC50", "setting": "[3]; mean IC50 with bottom and top 95% confidence interval, read-out: Avg. GluN2C IC50 (95% CI)", "value": 0.11, "unit": "µM"}, {"measurement": "IC50", "setting": "[3]; [9]", "value": 0.094, "unit": "µM"}, {"measurement": "I3 μM/Icontrol (mean ± SEM, %) GluN2C", "setting": "[7]; [13]", "value": "9.3 ± 1.8", "unit": "%"}, {"measurement": "IC50", "setting": "[4]; mean IC50 with bottom and top 95% confidence interval, read-out: Avg. GluN2D IC50 (95% CI)", "value": 0.055, "unit": "µM"}, {"measurement": "IC50", "setting": "[4]; [10]", "value": 0.046, "unit": "µM"}, {"measurement": "I3 μM/Icontrol (mean ± SEM, %) GluN2D", "setting": "[8]; [13]", "value": "3.5 ± 1.0", "unit": "%"}, {"measurement": "fold more potent than the (+)-enantiomer at GluN2D", "setting": "[8]; (−)- versus (+)-enantiomer", "value": 85, "unit": "fold"}]}
{"smiles": "Cc1ccc2[nH]c(=O)c(C3=NN(C(=O)C(F)(F)CC(=O)O)C(c4ccc(Cl)cc4)C3)c(-c3ccc(Cl)cc3)c2c1", "note": "(stereo not drawn) [997-90, 4-(5-(4-chlorophenyl)-3-(4-(4-chlorophenyl)-6-methyl-2-oxo-1,2-dihydroquinolin-3-yl)-4,5-dihydro-1H-pyrazol-1-yl)-3,3-difluoro-4-oxobutanoic acid]", "values": [{"measurement": "IC50", "setting": "[1]", "value": 3, "unit": "µM"}, {"measurement": "IC50", "setting": "[2]", "value": 3, "unit": "µM"}, {"measurement": "IC50", "setting": "[3]; [9]", "value": 0.4, "unit": "µM"}, {"measurement": "IC50", "setting": "[4]; [12]", "value": 0.2, "unit": "µM"}]}
